From patent US20240246932A1 (Merck Sharp & Dohme LLC, priority 2021, published 2024)

target: human NaV 1.8 channels stably expressed in HEK 293 cells (Homo sapiens (Human), UniProt Q9Y5Y9); test: Nav1.8 Qube automated patch-clamp assay; format: cell-based; conditions: human NaV1.8 in HEK 293 cells, whole-cell voltage clamp, room temperature; read-out: IC50 values (nM) for Examples in the Nav1.8 Qube Assay
Protocol: Compounds were tested on human NaV 1.8 and NaV1.5 channels stably expressed in human embryo kidney (HEK) 293 cells. Sodium current measurements on Qube® were conducted as follows: automated 384-well patch-clamp assays on the Qube® platform (Sophion Biosciences) were used to measure the inhibition of sodium flow through human NaV1.8 and NaV1.5 channels. Whole-cell voltage-clamp recordings were performed in QChips® (Sophion Biosciences) at room temperature. NaV1.8 current measurements on Qube® were obtained as follows: NaV1.8 currents were elicited with a 10 second 1 Hertz (Hz) pulse train from a holding potential of −90 millivolts (mV), delivered to the cells once per minute in the control condition (DMSO only) and after compound addition. The 1 hertz pulse train stimulation consisted of ten test pulses to 10 millivolt (mV) for 20 milliseconds (ms), each of which was followed by a 980 millisecond repolarization to −67 millivolts. At the end of the 10 second pulse train stimulation, a 5 second hyperpolarization step to −100 millivolt (mV) was used to recover NaV1.8 from fast inactivation. The peak currents elicited by the 1st and 10th test pulses were used to determine IC50 values for resting inhibition and inactivated state inhibition. NaV1.5 current measurements on Qube® were obtained as follows: NaV1.5 currents were elicited with a 20 second 3 Hertz pulse train in the control condition (DMSO only) and after compound addition. The pulse train consisted of sixty 20 millisecond test pulses to 0 millivolt from a holding potential of −80 millivolt (mV). The average peak currents elicited by the last 3 test pulses were used to determine IC50 values for NaV1.5 inhibition.
The following buffers were used for the Qube® recordings: External buffer for NaV1.8 Qube® recording: 150 NaCl, 2 CaCl2, 5 KCl, 1 MgCl2, 10 HEPES, 12 Dextrose; External buffer for Qube® NaV1.5 recording: 120 N-Methyl-D-Glucamine, 40 NaCl, 1 KCl, 2.7 CaCl2), 5 HEPES, 0.5 MgCl2; and Internal buffer for Qube® recording: 120 CsF, 30 CsCl, 10 EGTA, 5 HEPES, 5 NaF, 2 MgCl2.
For all Qube® experiments offline analysis was used to determine percent inhibition as a function of drug concentration. IC50 values were determined by fitting to the Hill equation.

Sequence of human NaV 1.8 channels stably expressed in HEK 293 cells (Q9Y5Y9 whole entry): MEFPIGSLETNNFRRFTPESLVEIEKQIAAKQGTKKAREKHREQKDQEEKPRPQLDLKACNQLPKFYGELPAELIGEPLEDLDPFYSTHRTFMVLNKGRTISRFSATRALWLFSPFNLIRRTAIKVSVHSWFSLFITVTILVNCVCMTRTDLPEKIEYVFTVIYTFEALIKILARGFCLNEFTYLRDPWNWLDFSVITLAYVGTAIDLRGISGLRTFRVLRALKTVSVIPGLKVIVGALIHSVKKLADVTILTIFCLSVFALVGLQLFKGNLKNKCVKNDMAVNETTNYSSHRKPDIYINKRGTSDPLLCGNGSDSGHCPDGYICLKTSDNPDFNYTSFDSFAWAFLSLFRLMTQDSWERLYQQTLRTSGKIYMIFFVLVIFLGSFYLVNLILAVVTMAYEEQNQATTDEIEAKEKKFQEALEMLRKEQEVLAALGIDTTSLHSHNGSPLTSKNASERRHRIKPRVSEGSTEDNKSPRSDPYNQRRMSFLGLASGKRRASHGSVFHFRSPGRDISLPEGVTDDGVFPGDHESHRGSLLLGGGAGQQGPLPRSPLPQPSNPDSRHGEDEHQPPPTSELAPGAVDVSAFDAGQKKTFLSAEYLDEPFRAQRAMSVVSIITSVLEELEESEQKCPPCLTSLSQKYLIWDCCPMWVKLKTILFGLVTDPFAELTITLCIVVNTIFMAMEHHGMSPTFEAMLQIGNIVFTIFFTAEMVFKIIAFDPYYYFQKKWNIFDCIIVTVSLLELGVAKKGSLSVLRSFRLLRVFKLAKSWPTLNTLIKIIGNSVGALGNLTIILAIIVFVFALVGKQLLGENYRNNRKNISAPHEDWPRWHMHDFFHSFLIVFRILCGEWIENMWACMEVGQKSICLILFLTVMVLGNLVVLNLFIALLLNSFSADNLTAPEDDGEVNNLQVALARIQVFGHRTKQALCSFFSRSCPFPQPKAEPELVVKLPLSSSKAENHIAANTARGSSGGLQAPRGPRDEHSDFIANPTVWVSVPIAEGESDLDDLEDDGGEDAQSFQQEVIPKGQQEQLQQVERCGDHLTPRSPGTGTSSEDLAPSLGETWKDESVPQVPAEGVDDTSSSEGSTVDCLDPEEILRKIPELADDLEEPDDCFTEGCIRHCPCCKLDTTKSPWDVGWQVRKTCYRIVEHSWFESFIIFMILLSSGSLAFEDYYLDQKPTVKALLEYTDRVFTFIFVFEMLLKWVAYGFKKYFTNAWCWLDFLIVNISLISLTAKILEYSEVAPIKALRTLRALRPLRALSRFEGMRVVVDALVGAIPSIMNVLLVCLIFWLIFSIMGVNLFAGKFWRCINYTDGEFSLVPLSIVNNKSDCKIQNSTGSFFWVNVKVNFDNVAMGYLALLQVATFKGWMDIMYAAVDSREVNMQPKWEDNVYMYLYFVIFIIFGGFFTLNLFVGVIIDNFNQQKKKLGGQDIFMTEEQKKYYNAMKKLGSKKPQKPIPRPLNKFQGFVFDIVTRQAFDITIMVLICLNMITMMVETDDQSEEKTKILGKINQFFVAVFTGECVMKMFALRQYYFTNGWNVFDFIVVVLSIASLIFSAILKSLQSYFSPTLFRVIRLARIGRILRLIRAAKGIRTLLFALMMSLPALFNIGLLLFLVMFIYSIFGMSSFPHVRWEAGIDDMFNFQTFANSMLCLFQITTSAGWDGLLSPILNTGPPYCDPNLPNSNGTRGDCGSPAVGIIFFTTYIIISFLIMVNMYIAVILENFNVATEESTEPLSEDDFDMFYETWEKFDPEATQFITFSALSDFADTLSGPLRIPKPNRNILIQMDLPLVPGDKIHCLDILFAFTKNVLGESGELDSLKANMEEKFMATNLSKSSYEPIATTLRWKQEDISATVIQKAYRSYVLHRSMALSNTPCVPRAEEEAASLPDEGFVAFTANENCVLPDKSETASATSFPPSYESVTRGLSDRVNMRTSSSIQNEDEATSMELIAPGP

| SMILES | IC50 |
| --- | --- |
| C[C@@H]1C(=O)NCCN1C(=O)NC(c1ccc(OC2CC2)c(F)c1)c1cnc(C(F)(F)F)c(Cl)c1 (single isomer, unassigned) [Example 25A, (2R)-N-((R or S)-(5-chloro-6-(trifluoro-methyl)pyridin-3-yl)(4-cyclopropoxy-3-fluorophenyl)methyl)-2-methyl-3-oxopiperazine-1-carboxamide] | 3.51 nM |
| C[C@@H]1C(=O)NCCN1C(=O)NC(c1ccc(OC2CC2)c(F)c1)c1cnc(C(F)(F)F)c(Cl)c1 (single isomer, unassigned) [Example 25B, (2R)-N-((S or R)-(5-chloro-6-(trifluoro-methyl)pyridin-3-yl)(4-cyclopropoxy-3-fluorophenyl)methyl)-2-methyl-3-oxopiperazine-1-carboxamide] | 15.8 nM |
| C[C@@H]1C(=O)NCCN1C(=O)NC(c1ccc(F)c(Cl)c1)c1cnc(C(F)(F)F)c(Cl)c1 (single isomer, unassigned) [Example 26A, (2R)-N-((R or S)-(3-chloro-4-fluoro-phenyl)(5-chloro-6-(trifluoromethyl)pyridin-3-yl)methyl)-2-methyl-3-oxopiperazine-1-carboxamide] | 1.89 nM |
| C[C@@H]1C(=O)NCCN1C(=O)NC(c1ccc(F)c(Cl)c1)c1cnc(C(F)(F)F)c(Cl)c1 (single isomer, unassigned) [Example 26B, (2R)-N-((S or R)-(3-chloro-4-fluoro-phenyl)(5-chloro-6-(trifluoromethyl)pyridin-3-yl)methyl)-2-methyl-3-oxopiperazine-1-carboxamide] | 3.81 nM |
| C[C@@H]1C(=O)NCCN1C(=O)NC(c1cnc(C2CC2)c(Cl)c1)c1ccc(F)c(Cl)c1F (single isomer, unassigned) [Example 27A, (2R)-N-((R or S)-(3-chloro-2,4-difluoro-phenyl)(5-chloro-6-cyclopropylpyridin-3-yl)methyl)-2-methyl-3-oxopiperazine-1-carboxamide] | 52.6 nM |
| C[C@@H]1C(=O)NCCN1C(=O)NC(c1cnc(C2CC2)c(Cl)c1)c1ccc(F)c(Cl)c1F (single isomer, unassigned) [Example 27B, (2R)-N-((S or R)-(3-chloro-2,4-difluorophenyl)(5-chloro-6-cyclopropylpyridin-3-yl)methyl)-2-methyl-3-oxopiperazine-1-carboxamide] | 2.88 nM |
| C[C@@H]1C(=O)NCCN1C(=O)NC(c1cnc(C(F)(F)F)nc1)c1ccc(Cl)c(Cl)c1 (single isomer, unassigned) [Example 28A, (2R)—N—((R or S)-(3,4-dichlorophenyl)(2-(trifluoromethyl)pyrimidin-5-yl)methyl)-2-methyl-3-oxopiperazine-1-carboxamide] | 10.8 nM |
| C[C@@H]1C(=O)NCCN1C(=O)NC(c1cnc(C(F)(F)F)nc1)c1ccc(Cl)c(Cl)c1 (single isomer, unassigned) [Example 28B, (2R)-N-((S or R)-(3,4-dichlorophenyl)(2-(trifluoromethyl)pyrimidin-5-yl)methyl)-2-methyl-3-oxopiperazine-1-carboxamide] | 43.7 nM |
| C[C@@H]1C(=O)NCCN1C(=O)NC(c1ccc(C(F)(F)F)nc1)c1ccc(Cl)c(Cl)c1F (single isomer, unassigned) [Example 29A, (2R)-N-((R or S)-(3,4-dichloro-2-fluoro-phenyl)(6-(trifluoro-methyl)pyridin-3-yl)methyl)-2-methyl-3-oxopiperazine-1-carboxamide] | 21.4 nM |
| C[C@@H]1C(=O)NCCN1C(=O)NC(c1ccc(C(F)(F)F)nc1)c1ccc(Cl)c(Cl)c1F (single isomer, unassigned) [Example 29B] | 3.42 nM |
| C[C@@H]1C(=O)NCCN1C(=O)NC(c1cnc(C(F)(F)F)nc1)c1ccc(F)c(Cl)c1F (single isomer, unassigned) [Example 30A, (2R)-N-((R or S)-(3-chloro-2,4-difluoro-phenyl)(2-(trifluoro-methyl)pyrimidin-5-yl)methyl)-2-methyl-3-oxopiperazine-1-carboxamide] | 506 nM |
| C[C@@H]1C(=O)NCCN1C(=O)NC(c1cnc(C(F)(F)F)nc1)c1ccc(F)c(Cl)c1F (single isomer, unassigned) [Example 30B, (2R)-N-((S or R)-(3-chloro-2,4-difluoro-phenyl)(2-(trifluoro-methyl)pyrimidin-5-yl)methyl)-2-methyl-3-oxopiperazine-1-carboxamide] | 9.18 nM |
| C[C@@H]1C(=O)NCCN1C(=O)NC(c1ccc(OC(F)F)nc1)c1ccc(F)c(Cl)c1F (single isomer, unassigned) [Example 31A, (2R)-N-((R or S)-(3-chloro-2,4-difluoro-phenyl)(6-(difluoro-methoxy)pyridin-3-yl)methyl)-2-methyl-3-oxopiperazine-1-carboxamide] | 3.47 nM |
| C[C@@H]1C(=O)NCCN1C(=O)NC(c1ccc(OC(F)F)nc1)c1ccc(F)c(Cl)c1F (single isomer, unassigned) [Example 31B, (2R)-N-((S or R)-(3-chloro-2,4-difluoro-phenyl)(6-(difluoro-methoxy)pyridin-3-yl)methyl)-2-methyl-3-oxopiperazine-1-carboxamide] | 16.1 nM |
| C[C@@H]1C(=O)NCCN1C(=O)NC(c1ccc(C(F)F)nc1)c1ccc(F)c(Cl)c1F (single isomer, unassigned) [Example 32A, (2R)-N-((R or S)-(3-chloro-2,4-difluoro-phenyl)(6-(difluoro-methyl)pyridin-3-yl)methyl)-2-methyl-3-oxopiperazine-1-carboxamide] | 96.8 nM |
| C[C@@H]1C(=O)NCCN1C(=O)NC(c1ccc(C(F)F)nc1)c1ccc(F)c(Cl)c1F (single isomer, unassigned) [Example 32B, (2R)-N-((s or R)-(3-chloro-2,4-difluoro-phenyl)(6-(difluoro-methyl)pyridin-3-yl)methyl)-2-methyl-3-oxopiperazine-1-carboxamide] | 13 nM |
| C[C@@H]1C(=O)NCCN1C(=O)NC(c1ccc(C2CC2)nc1)c1ccc(F)c(Cl)c1F (single isomer, unassigned) [Example 33A, (2R)-N-((R or S)-(3-chloro-2,4-difluoro-phenyl)(6-cyclo-propylpyridin-3-yl)methyl)-2-methyl-3-oxopiperazine-1-carboxamide] | 14.4 nM |
| C[C@@H]1C(=O)NCCN1C(=O)NC(c1ccc(C2CC2)nc1)c1ccc(F)c(Cl)c1F (single isomer, unassigned) [Example 33B, (2R)-N-((S or R)-(3-chloro-2,4-difluoro-phenyl)(6-cyclo-propylpyridin-3-yl)methyl)-2-methyl-3-oxopiperazine-1-carboxamide] | 514 nM |
| C[C@@H]1C(=O)NCCN1C(=O)NC(c1cnc(C(F)(F)F)c(F)c1)c1ccc(F)c(Cl)c1F (single isomer, unassigned) [Example 34, (2R)—N—((R or S)-(3-chloro-2,4-difluorophenyl)(5-fluoro-6-(trifluoromethyl)pyridin-3-yl)methyl)-2-methyl-3-oxopiperazine-1-carboxamide] | 2.12 nM |
| C[C@@H]1C(=O)NCCN1C(=O)NC(c1cnc(C(F)(F)F)c(Cl)c1)c1ccc(F)c(Cl)c1F (single isomer, unassigned) [Example 35, (2R)-N-((R or S)-(3-chloro-2,4-difluorophenyl)(5-chloro-6-(trifluoromethyl)pyridin-3-yl)methyl)-2-methyl-3-oxopiperazine-1-carboxamide] | 1.13 nM |
| O=C1CN(C(=O)NC(c2cnc(C(F)(F)F)c(Cl)c2)c2ccc(F)c(Cl)c2F)CCN1 (single isomer, unassigned) [Example 36, N-((R or S)-(3-chloro-2,4-difluorophenyl)(5-chloro-6-(trifluoro-methyl)pyridin-3-yl)methyl)-3-oxopiperazine-1-carboxamide] | 6.97 nM |
| O=C1NCCN(C(=O)NC(c2cnc(C(F)(F)F)c(F)c2)c2ccc(F)c(Cl)c2F)C1C1CC1 (single isomer, unassigned) [Example 37A, N-(R or S)-(3-chloro-2,4-difluorophenyl)(5-fluoro-6-(trifluoro-methyl)pyridin-3-yl)methyl)-(R or S)-2-cyclopropyl-3-oxopiperazine-1-carboxamide] | 1.85 nM |
| O=C1NCCN(C(=O)NC(c2cnc(C(F)(F)F)c(F)c2)c2ccc(F)c(Cl)c2F)C1C1CC1 (single isomer, unassigned) [Example 37B, N-((R or S)-(3-chloro-2,4-difluorophenyl)(5-fluoro-6-(trifluoro-methyl)pyridin-3-yl)methyl)-(S or R)-2-cyclopropyl-3-oxopiperazine-1-carboxamide] | 188 nM |
